# Data as given in US4590209A, “Alkoxy-acyl carnitines and pharmaceutical compositions containing same” (Sigma-Tau Industrie Farmaceutiche Riunite S.p.A., priority 1980, dated 1986).
# Structures can show the parent of a compound that is named as a salt.
# Legend:
# mice = experiment: Antiarrhythmic / antifibrillatory effect, aconitine-induced arrhythmia (Nwangwu et al.); format: in vivo
# Protocol: In order to evaluate the antiarrhythmic activity of the carnitine derivatives of this invention studied with in vivo tests in addition to and in comparison with the currently employed in vitro tests, the method disclosed by Nwangwu et al. (Arch. Inc. Pharmacodyn., 1977, 229, 219) was used.
# According to this method an aconitine solution is injected into the caudal vein of mice and the onset time of arrhythmia and tachycardia after 2 to 60 minutes from administration of the compounds under examination is recorded.
# The antiarrhythmic activity calculated from the increase in the latency time of the onset of the arrhythmias of the treated animals in comparison with the controls, is illustrated in the Table.
# adrenaline = experiment: Adrenaline-antagonizing effect (adrenaline-induced mortality); format: in vivo, male Albino Swiss mice; settings: mice, adrenaline after 30 minutes, mortality checked for 36 hours
# Protocol: Groups of ten male Albino Swiss mice, weighing 12-22 g, were intraperitoneally administered either with the compounds of the present invention or with saline (control) and, after 30 minutes, with adrenaline (treated) at a dose capable of bringing about death to 100% of the control animals due to ventricular fibrillation and cardiac lesions ensuing from increase in frequency, pressure and oxygen uptake from the myocardium.
# Mortality was checked for 36 hours and the effect of the compounds expressed as percentage of surviving animals, is shown in the Table.
# [1] = Acute toxicity (LD50), Weil method; settings: mouse, in vivo, ip; mice, intraperitoneal; read-out: i.p. LD50
# Text: Acute toxicity was investigated by using the method disclosed by Weil C. S. in "Tables for convenient calculation of median-effective dose (LD50 or ED50) and instructions in their use", Biometrics, 249-253, 1952.
# The tolerance of the compounds under examination was investigated in mice after administration by the intraperitoneal or oral route. […] (see the Table).
# rabbit isolated heart = experiment: Inotropic effect on isolated rabbit heart (Langendorff) after anoxia; settings: dose 10^-5 gl^-1, 10 minutes from the interruption of the anoxic period, percentage increase against controls
# Protocol: Rabbit hearts isolated by the Langendorff method were perfused with oxygenized Ringer solution at 38.2° C. The isometric contractions, electrogardiogram and coronary flow were recorded using a "Battaglia-Rangoni" polygraph. By removing the oxygen from the perfusion fluid, metabolic damage was induced in the cardiac muscle, up to an 80% reduction in the cardiac contractile force.
# Under these conditions of prolonged anoxia the aerobic glycolysis of the myocardium is slowed down, accompanied by the storage of acid catabolites due to both the accumulation of pyruvic acid and its conversion to lactic acid which cannot be utilized because of the depression of pyridine enzymes, such as LDH (lactodehydogenase). This has repercussions on the anaerobic glycolysis affecting an ever increasing number of enzymes, accompanied by a progressive and increasingly critical exhaustion of the myocardium. Thus a whole series of cardiac muscle fatigue levels occurs which can be observed by the behavior of the examined parameters, namely the contractile force, coronary flow, heart rate and cardiac rhythm. As soon as the contractile force was reduced by 80%, the perfusion fluid was once again oxygenized either without adding other compounds (controls) or with the addition of the compounds under examination.
# In the Table there are shown the percentage value of increase against the controls.
SMILES,"Antifibrillatory activity, % reduction (mice; dose 300 mg kg^-1 i.v.) [%]","Antiadrenaline activity, % mortality reduction (adrenaline; dose 450 mg kg^-1 i.p.) [%]",LD50 [1] [mg/kg],"Inotropic effect, % of controls (rabbit isolated heart)","Antifibrillatory activity, % reduction (mice; dose 25 mg kg^-1 i.v.) [%]","Antiadrenaline activity, % mortality reduction (adrenaline; dose 50 mg kg^-1 i.p.) [%]"
"CCOCCC(=O)OC(CC(=O)O)C[N+](C)(C)C (centres unmarked) [R = 3-ethoxypropionyl, 3-ethoxypropionyl carnitine hydrochloride]",80,75,1300,+95%,,
"COCCCC(=O)OC(CC(=O)O)C[N+](C)(C)C (centres unmarked) [R = 4-methoxybutyryl, 4-methoxybutyryl carnitine]",,,1850,+85%,85,78
